Experimental data from patent US20220204510A1, “2,3-DIHYDRO-1H-PYRROLIZINE-7-FORMAMIDE DERIVATIVE AND APPLICATION THEREOF” (CHIA TAI TIANQING PHARMACEUTICAL GROUP CO., LTD., priority 2018, published 2022).
Where two headings read alike, the source gives them in different places.

Test: Metabolic stability in liver microsomes
Assay type: in vitro ADME
Conditions: for half-life at 1 μM: 1 μM compound, 0.5 mg/mL; for microsomal CLint at 1 μM: read-out: CLint(mic)
Experimental: Experimental objective: to evaluate the metabolic stability of test compounds 18 and 25 in liver microsomes of rats, beagle dogs and cynomolgus monkeys
Experimental procedures: first, the test compound (10 mM) was subjected to a two-step dilution, where the compound was diluted to an intermediate concentration of 100 μM with 100% methanol, and the working solution was diluted to 10 μM with a potassium phosphate buffer; eight 96-well incubation plates were prepared, and named T0, T5, T10, T20, T30, T60, Blank and NCF60, respectively; the reaction time points corresponding to the first 6 incubation plates were 0, 5, 10, 20, 30 and 60 min, respectively; for the Blank plate, neither the test compound nor a control compound was added, and for the NCF60 plate, potassium phosphate buffer was used in an incubation of 60 min in place of a NADPH regeneration system solution; 10 μL of the test compound working solution and 80 μL of the microsome working solution (liver microsome protein concentration was 0.625 mg/mL) were added to the T0, T5, T10, T20, T30, T60 and NCF60 plates, while only the microsome working solution was added to the Blank plate, and all the incubation plates were then placed in a 37° C. water bath for pre-incubation for about 10 min; after the pre-incubation, 10 μL of a NADPH regeneration system working solution was added into each sample well of all the plates except the NCF60 plate and T0 plate to start the reaction, and 10 μL of potassium phosphate buffer was added to each well of the NCF60 plate; therefore, in the test compound or control compound samples, the final reaction concentrations of the compound, testosterone, diclofenac and propafenone were 1 μM, the concentration of the liver microsomes was 0.5 mg/mL, and the final concentrations of DMSO and acetonitrile in the reaction system were 0.01% (v/v) and 0.99% (v/v), respectively; after incubation for an appropriate time (such as 5, 10, 20, 30, and 60 min), 300 μL of a stop solution (acetonitrile solution containing 100 ng/mL tolbutamide and 100 ng/mL labetalol) was added to each sample well to stop the reaction; 300 μL of the stop solution and then 10 μL of the NADPH working solution were added to the T0 plate, all the sample plates were shaken and centrifuged in a centrifuge (3220×g) for 20 min, and then 100 μL of supernatant was taken from each well and diluted with 300 μL of pure water for liquid chromatography-tandem mass spectrometry analysis.

[1] = Sprague-Dawley (SD), rat, SD rats liver microsomes
[2] = cynomolgus monkey, Cynomolgus monkeys liver microsomes
[3] = dog, Beagle dogs liver microsomes

SMILES | CLint scaled at 1 μM [1] | half-life at 1 μM [1] | microsomal CLint at 1 μM [1] | CLint scaled at 1 μM [2] | half-life at 1 μM [2] | microsomal CLint at 1 μM [2] | CLint scaled at 1 μM [3] | half-life at 1 μM [3] | microsomal CLint at 1 μM [3]
C[C@]1(NC(=O)C(=O)c2c(Cl)c(C(=O)Nc3ccc(F)c(F)c3)c3n2CCC3)CC[C@H](CC(=O)O)CC1 [Compound 18] | < 17.3 mL/min/kg | > 2.42 h | < 9.6 µL/min/mg | < 13 mL/min/kg | > 2.42 h | < 9.6 µL/min/mg | < 13.8 mL/min/kg | > 2.42 h | < 9.6 µL/min/mg
C[C@]1(NC(=O)C(=O)c2c(Cl)c(C(=O)Nc3cc(F)c(F)c(F)c3)c3n2CCC3)CC[C@H](CC(=O)O)CC1 [Compound 25] | < 17.3 mL/min/kg | > 2.42 h | < 9.6 µL/min/mg | < 13 mL/min/kg | > 2.42 h | < 9.6 µL/min/mg | < 13.8 mL/min/kg | > 2.42 h | < 9.6 µL/min/mg
